Assay results taken from patent US20260138961A1, “MODULATORS OF MITOCHONDRIAL DNA REPLICATION” (Pretzel Therapeutics, Inc., priority 2022, published 2026).

These molecules were tested against T1, POLγA:R309C (Homo sapiens, UniProt P54098, R309C) (assay: DNA polymerization assay, POLγA:R309C mutant). Details: stimulation of polymerase activity, primed M13mp18 ssDNA, 37° C. 2 hours.
T1 sequence (P54098 1-1239 R309C): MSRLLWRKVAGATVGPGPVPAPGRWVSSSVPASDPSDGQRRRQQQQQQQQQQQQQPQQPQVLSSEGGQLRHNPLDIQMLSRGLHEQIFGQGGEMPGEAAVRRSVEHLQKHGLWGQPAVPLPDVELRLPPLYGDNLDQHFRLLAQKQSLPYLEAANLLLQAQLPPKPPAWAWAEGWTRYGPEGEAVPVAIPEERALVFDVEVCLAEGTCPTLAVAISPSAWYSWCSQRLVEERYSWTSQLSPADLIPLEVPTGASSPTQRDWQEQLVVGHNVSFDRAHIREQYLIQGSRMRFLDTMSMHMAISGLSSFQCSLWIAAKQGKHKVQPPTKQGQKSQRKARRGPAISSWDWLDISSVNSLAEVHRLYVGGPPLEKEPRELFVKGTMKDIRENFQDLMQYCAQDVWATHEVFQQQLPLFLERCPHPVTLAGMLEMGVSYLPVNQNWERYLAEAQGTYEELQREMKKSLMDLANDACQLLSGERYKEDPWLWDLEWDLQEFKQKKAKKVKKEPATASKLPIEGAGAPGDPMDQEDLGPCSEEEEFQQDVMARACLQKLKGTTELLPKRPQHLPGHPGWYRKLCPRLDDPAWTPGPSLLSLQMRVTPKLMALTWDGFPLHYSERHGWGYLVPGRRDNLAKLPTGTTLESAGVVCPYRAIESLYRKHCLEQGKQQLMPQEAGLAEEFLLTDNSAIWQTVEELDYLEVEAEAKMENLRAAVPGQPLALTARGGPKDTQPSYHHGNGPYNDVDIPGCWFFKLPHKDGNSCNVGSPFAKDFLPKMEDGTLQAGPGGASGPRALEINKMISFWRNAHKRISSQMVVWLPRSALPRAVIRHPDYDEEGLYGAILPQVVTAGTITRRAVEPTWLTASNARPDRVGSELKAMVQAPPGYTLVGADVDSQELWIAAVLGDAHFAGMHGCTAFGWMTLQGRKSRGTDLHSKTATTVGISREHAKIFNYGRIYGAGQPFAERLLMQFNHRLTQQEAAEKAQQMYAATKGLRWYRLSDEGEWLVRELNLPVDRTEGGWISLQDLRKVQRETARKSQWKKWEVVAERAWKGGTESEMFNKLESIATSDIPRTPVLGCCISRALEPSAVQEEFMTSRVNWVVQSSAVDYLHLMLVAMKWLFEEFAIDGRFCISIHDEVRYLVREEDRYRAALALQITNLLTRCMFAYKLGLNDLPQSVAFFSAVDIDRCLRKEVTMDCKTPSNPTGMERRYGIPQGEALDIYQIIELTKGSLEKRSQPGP
T1 sequence (Q9UHN1 1-485 partner): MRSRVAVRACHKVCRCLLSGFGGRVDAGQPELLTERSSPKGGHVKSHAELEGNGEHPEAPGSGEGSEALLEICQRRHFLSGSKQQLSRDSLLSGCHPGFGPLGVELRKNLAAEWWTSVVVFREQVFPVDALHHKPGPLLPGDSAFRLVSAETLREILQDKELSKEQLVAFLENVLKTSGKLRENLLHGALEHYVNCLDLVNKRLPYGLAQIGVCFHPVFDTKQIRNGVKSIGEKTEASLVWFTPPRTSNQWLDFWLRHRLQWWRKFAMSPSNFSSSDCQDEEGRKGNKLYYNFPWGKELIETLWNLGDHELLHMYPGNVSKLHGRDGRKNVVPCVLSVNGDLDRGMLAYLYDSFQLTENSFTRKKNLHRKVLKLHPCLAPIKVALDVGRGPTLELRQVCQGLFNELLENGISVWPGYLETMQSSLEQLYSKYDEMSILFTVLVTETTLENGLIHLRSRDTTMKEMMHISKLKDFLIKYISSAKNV
Format: biochemical
Method: DNA Polymerization Assay to Monitor Effects on Human Wildtype POLγ and Four Disease-Causing Mutant Variants of Human POLγ.
The ability of small molecules to stimulate the polymerase activity of POLγ was analyzed in a quantitative fluorescence SYBR Green I assay with fluorescence intensity (FI) readout.
In the presence of dNTPs, wild type human POLγ and mutant derivatives thereof were incubated with single-stranded, circular M13mp18 ssDNA hybridized to a short DNA oligonucleotide that functions as a primer for initiation of DNA synthesis. POLγ and mutant derivatives thereof will extend the primer and use the M13mp18 molecule as a template to synthesize long stretches of double-stranded DNA. SYBR Green I, which is a double-stranded DNA-binding dye, was used to quantify formation of double-stranded DNA in the reaction. When bound to double-stranded DNA, SYBR Green I fluorescence increases by up to 100-fold.
The assay was performed in the 384-well plate format. Upon addition of compounds, changes in double-stranded DNA synthesis activity can be monitored by following effects on fluorescent intensity.
The reactions also contained the accessory POLγB subunit, and the human mitochondrial single-stranded DNA binding protein (mtSSB).
The DNA template mixture used in the assay contained 0.5 nM primed M13 mp18 ssDNA, 400 nM mtSSB, 0.1 mM Tris-HCl (pH 8.0), 0.1 mM dNTP, 10 mM MgCl2, 0.1 mg/mL BSA, 1 mM TCEP solution, and 0.02% Triton X-100. The DNA template mixture for the wild type protein contained either 100 μM dNTP, 1 μM dNTP, or 0.1 μM dNTP, designated in Table 2 as 100 μM, 1 μM, and 0.1 μM, respectfully.
Microplates with compounds (0.1 μL in each well) to be tested in the assay were prepared from 10 mM compound stocks in 100% DMSO, and equal amounts of DMSO without any compound were added to positive and negative control wells.
The protein mixture was dispensed (5 μL into each well) into compound plates and incubated at 37° C. for 15 minutes. After incubation, 5 μL of the DNA template mixture was dispensed into each well. The plates were then incubated at 37° C. for 2 hours.
During incubation, a combined stop buffer and detection reagent solution was prepared. The buffer contained 25 mM EDTA (pH 8.0), 0.02% Triton X-100, and SYBR Green I [Invitrogen] diluted 10,000× (for fluorescent readout). EDTA will stop the enzymatic reaction by chelating magnesium ions.

SMILES | AC50 [µM]
Cc1cc(S(=O)(=O)Nc2ccc3ccn(C)c3c2)c(C)cc1Cl [Example 72, 4-chloro-2,5-dimethyl-N-(1-methyl-1H-indol-6-yl)benzenesulfonamide] | 30
Cc1nc2ccc(NS(=O)(=O)c3cc(C)c(Cl)cc3C)cc2s1 [Example 73, 4-chloro-2,5-dimethyl-N-(2-methylbenzo[d]thiazol-6-yl)benzenesulfonamide] | 1
Cc1cc(S(=O)(=O)Nc2cccc(-c3ncc(C4CC4)s3)c2)c(C)cc1Cl [Example 76, 4-chloro-N-(3-(5-cyclopropylthiazol-2-yl)phenyl)-2,5-dimethylbenzenesulfonamide] | 6
Cc1csc(-c2ccccc2NS(=O)(=O)c2cc(C)c(Cl)cc2C)n1 [Example 80, 4-chloro-2,5-dimethyl-N-(2-(4-methylthiazol-2-yl)phenyl)benzenesulfonamide] | > 100
Cc1cc(S(=O)(=O)Nc2csc(-c3ccccc3)n2)c(C)cc1Cl [Example 81, 4-chloro-2,5-dimethyl-N-(2-phenylthiazol-4-yl)benzenesulfonamide] | 0.6
Cc1cc(S(=O)(=O)Nc2cccc(-c3ncc(CN(C)C)s3)c2)c(C)cc1Cl [Example 87, 4-chloro-N-(3-(5-((dimethylamino)methyl)thiazol-2-yl)phenyl)-2,5-dimethylbenzenesulfonamide] | 6
Cc1cc(S(=O)(=O)Nc2cccc(-c3ncc(CO)s3)c2)c(C)cc1Cl [Example 89, 4-chloro-N-(3-(5-(hydroxymethyl)thiazol-2-yl)phenyl)-2,5-dimethylbenzenesulfonamide] | 4
